In the NIST ThermoML archive (doi:10.1021/acs.jced.6b00901):
Numbers after ± are expanded uncertainties.

Assay: refractive index (Na D-line) (dimensionless)
Conditions: 101.33 kPa, Liquid, Standard Abbe refractometry

Structure (SMILES)	refractive index (283.15 K)	refractive index (288.15 K)	refractive index (293.15 K)	refractive index (298.15 K)	refractive index (303.15 K)	refractive index (308.15 K)	refractive index (313.15 K)	refractive index (318.15 K)	refractive index (323.15 K)
CCOC(=O)c1ccccc1C(=O)OCC [diethyl phthalate]	1.507 ± 0.0004	1.5048 ± 0.0004	1.5027 ± 0.0004	1.5005 ± 0.0004	1.4984 ± 0.0004	1.4962 ± 0.0004	1.4939 ± 0.0004	1.4917 ± 0.0004	1.4897 ± 0.0004
C=Cc1ccccc1 [styrene]	1.5533 ± 0.0004	1.5505 ± 0.0004	1.5472 ± 0.0004	1.544 ± 0.0004	1.5409 ± 0.0004	1.538 ± 0.0004	1.5352 ± 0.0004	1.5321 ± 0.0004	1.5291 ± 0.0004
C1=CC2C3C=CC(C3)C2C1 (configuration not stated) [3a,4,7,7a-tetrahydro-4,7-methanoindene]	–	–	–	–	–	1.5069 ± 0.0004	1.5045 ± 0.0004	1.5019 ± 0.0004	1.4991 ± 0.0004
